Entries after “also recorded” stand apart in the source; their conditions may differ.

The experiment relates to central nervous system effects of THC. In words: Phase 2 randomized, double-blind, placebo-controlled THC challenge study, PD endpoints (10.5 mg THC + 50 or 100 mg Compound 1). Type of experiment: in vivo, human. To be noted: for Proportion of subjects reporting feeling high: score of at least 20/100 on VAS feeling high scale.
Setting [1] is: 10.5 mg THC + 50 or 100 mg ANEB-001, p<0.05, unpaired t-test.
Setting [2] is: 10.5 mg THC + 50 or 100 mg Compound 1 vs THC alone.
The mark [3] stands for this setting: 10.5 mg THC + 50 or 100 mg Compound 1 vs THC alone, not statistically significant overall.
Setting [4] is: 10.5 mg THC + 50 or 100 mg Compound 1 vs THC alone, overall p<0.01.

Turning to `CC(C)(C)NC(=O)N1CC(O[C@H](c2ccc(Cl)cc2)c2ccccc2C(F)(F)F)C1` [Compound 1, (R)—N-(tert-butyl)-3-((4-chlorophenyl)(2-(trifluoromethyl)phenyl)methoxy)azetidine-1-carboxamide], where the note is “10.5 mg THC + 50 mg Compound 1”, the “Proportion of subjects reporting feeling high” value is reported as 10%. For the same compound, the “Responder Rate for Reduction in Feeling High” value (10.5 mg THC + 50 mg or 100 mg Compound 1, p<0.01 vs THC alone) is recorded as 60%. In addition, the “Proportion of subjects reporting feeling high” value (10.5 mg THC + 100 mg Compound 1) is 30%. For the same compound, under setting [1], the “Maximum change from baseline in body sway” value is reported as “significant reduction in the maximum change from baseline for body sway” and the “Maximum change from baseline in heart rate” value is on record as “significant reduction in the maximum change from baseline for heart rate”. Under setting [2], the VAS calmness entry is recorded as “no overall significant difference between the treatment groups”, the VAS internal perception result is on record as “no significant differences between treatments” and the VAS mood entry was “no significant differences between treatments”. In addition, under setting [3], the Heart rate result is given as “trend towards normalization of heart rate; also recorded: trend to normalization of heart rate” and the THC-induced body sway result is “trend towards reduced body sway; also recorded: trended to improvement”. The “VAS feeling high, time course” value (10.5 mg THC + 50 or 100 mg Compound 1 vs THC alone, overall p<0.0001) is “highly significant reduction in feeling high; also recorded: Highly significant and sustained improvement”. For the same compound, under setting [4], the VAS alertness entry is on record as “significantly inhibited the reduction in alertness; also recorded: significant improvement in alertness” and the VAS external perception entry was “significantly inhibited the change in perception; also recorded: Significant improvement at both dose levels”.

The values above are taken from US20260091020A1, “TREATMENT OF ACUTE CANNABINOID OVERDOSE” (Anebulo Pharmaceuticals, Inc., priority 2022, published 2026).
